Source: patent publication US20150141523A1, “COMPOUNDS FOR USE IN THE TREATMENT OF AUTOIMMUNE INFLAMMATORY DISEASE” (Venantius Limited, priority 2012, published 2015)
Read-outs that look alike come from different tables or passages of the source.

Assays:
[1] = system: β-hexosaminidase release from RBL-2H3 cells; conditions: cited from earlier work
Jurkat cells = assay: Jurkat cell viability (Acridine Orange/Ethidium Bromide); type: cell-based
Experimental: (§1) (A) Anti-TCR/CD28-mediated activation of Jurkat cells: Experiments involving anti-TCR/CD28-mediated activation of Jurkat T lymphocytes were carried out on 24-well cell culture plates. The plates were coated with a 1/100 dilution of rabbit anti-mouse IgG in sterile PBS (1×) and incubated overnight at 4OC. Unbound antibody was aspirated and the wells were gently rinsed with warm sterile PBS. The PBS was aspirated and the wells were coated with a 1/100 dilution of anti-TCR antibody (OKT-3) and a 1/200 dilution of anti-CD28 antibody (both antibodies pre-mixed prior to addition to the plates) in sterile PBS. The plates were then incubated for 1-2 hours at 37° C. Unbound antibody was aspirated and the wells were gently rinsed with warm PBS. The PBS was left on the plate until the Jurkat cells were ready to be added to the plate. The Jurkat cells were harvested from the T-75cm2 cell culture flasks and resuspended at a density of 0.5×10^6 cells per ml. The compounds were dissolved at a specified stock concentration (see results section) and diluted to the required concentration by adding the drug to the cell suspension. The cells were then pre-incubated with the compounds or with an equivalent volume of drug vehicle control (DMSO) for 30 minutes prior to adding the cell suspension to the antibody-coated plates. Cyclosporine A (1 μM) was used as a positive control to inhibit IL-2 production from activated T cells and was preincubated with the 6 cells as described above in parallel. The cells were then incubated on the plates with the acti-TCR/CD28 antibodies for 24 hours at 37° C. and 5% CO2 in a humidified atmosphere. After 24 hours, the cell suspension was removed from the plates and the cells were pelleted by centrifugation. The cell culture supernatant was saved and analysed for secreted IL-2 by ELISA. The cell pellet was saved and cell viability was measured using Acridine Orange/Ethidium Bromide cell viability staining solution.
The cell pellet was resuspended in 20 μl of Acridine Orange/Ethidium Bromide staining solution. A portion of this cell suspension was placed on a haemocytometer and analysed under a fluorescence microscope. […] The ratio of viable cells: non-viable cells were calculated for each activation time point/drug treatment.

[2] = system: IL-2 secretion from Jurkat T cells; assay: IL-2 secretion from activated Jurkat T cells (ELISA); type: cell-based, human; conditions: for IL-2 [ ]pg/ml (1) / IL-2 % Control (1): experiment (1); for IL-2 % Control (1) / IL-2 % Control (2) / IL-2 % Control (3): relative to DMSO 0.1%; for IL-2 [ ]pg/ml (2) / IL-2 % Control (2): experiment (2); for IL-2 [ ]pg/ml (3) / IL-2 % Control (3): experiment (3)
Experimental: The T cell line Jurkat 6.1 (ATCC) was used. Cells were pre-treated for 30 min with 1 μM or 10 μM of the respective compound and then stimulated with plate-bound anti-CD3 (BD Pharmingen) and anti-CD28 (AnCell). DMSO was used as vehicle control. The immunosuppressive agent Cyclosporine A was used as a control for inhibition of IL-2 production. After 24 hs the supernatant was collected and IL-2 secretion was measured by ELISA.
Jurkat T cells were cultured in RMPI-1640 medium containing 10 % Foetal Bovine Serum, Penicillin/Streptomycin and L-Glutamine in T-75cm2 flasks at 37° C. and 5 % CO2. Cells were seeded into new culture flasks at a density of 1-3×10^5 cells per ml and maintained at a density of 0.5−1×10^6 cells per ml.
as §1
(B) PHA/PMA-mediated activation of Jurkat cells Jurkat cells were resuspended at a concentration of 0.5×10^6 cells per ml and the Pharmatrin compounds at the desired concentration or an equivalent volume of drug vehicle control (DMSO) were added to the cells and incubated for 30 minutes. Cyclosporine A (1 ∝M) was used as a positive control to inhibit IL-2 production from activated T cells and was preincubated with the cells as described above in parallel. PHA and PMA were added to the cell suspension (10 ∝g/ml and 10 ng/ml respectively) and the cells were plated onto uncoated 24-well plates. The cells were incubated on the plates for 24 hours at 37° C. and 5 % CO2 in a humidified atmosphere. After 24 hours, the cell suspension was removed from the plates and the cells were pelleted by centrifugation. The cell culture supernatant was saved and analysed for secreted IL-2 by ELISA.
The cell culture supernatants were analysed for IL-2 by ELISA (96-well plate format) using the Human IL-2 ELISA kit from R&D Systems Europe. This assay was carried out using the standard protocol outlined by the company. Samples and standards (recombinant human IL-2 provided by R&D Systems) were analysed in triplicate. […]

BalbC mice = assay: Arachidonic acid mouse ear oedema model; type: in vivo; conditions: 300 μg/ear in acetone, topical; arachidonic acid alone 86%
Experimental: The arrachidonic mouse ear oedema model is an acute inflammation model based on activation of ecosanoid pathways. The mouse ear oedema model was performed using BalbC mice (25-35 g), of either sex. The ear was treated by the topical application (10 μl) of solvent (acetone 100%) or test drug (300 μg/ear in acetone) or Indomethacin (300 μg/ear in acetone). After one hour, oedema was induced by the topical application of arachidonic acid (10 μl at 0.4 g/ml in acetone). The width of each ear was measured, both before and 60 min after the induction of oedema, using a micrometer screw gauge. Ear oedema was calculated by comparing the ear width before and after induction of oedema and expressed as percentage normal. Animals were killed using CO2, without recovering from sedation.

Balb/C mice = assay: Oxazolone contact hypersensitivity (CHS) mouse ear swelling; type: in vivo; conditions: 15 mg/kg; vehicle 107%
Experimental: Female Balb/C mice (30-40 gms) were sensitised on day 0 with 20 μl of 2% oxazolone in acetone on each ear (10 μl on the inner and outer aspects of both ears). All mice were challenged on day 5 with 20 μl of 2% oxazolone in acetone only on the right ear; again, 10 μl on both the inner and outer aspects of the ear. Immediately following this, the mice were treated with test compound. The test compound was administered in exactly the same way as the oxazolone, with 10 μl on each side of the right ear. […] For the […] group, acetone was administered. All animals were killed 24 hrs later and the percentage increase in ear swelling was calculated. This was done in two ways. The thickness of the unchallenged left ear and the challenged right ear were measured using a micrometer caliper (μm). The increase in weight of both ears was also measured using a 5 mm biopsy punch (mgs). The percentage increase in oedema was then calculated for both weight and thickness by expressing the difference between the unchallenged left ear and the challenged right ear as a percentage of the left ear control.

[3] = RBL-2H3 cells, Inflamm. Res. 57 (2008)

In the case of “(S,S and RR)2-Benzyl-2,3-dihydro-1H,1′H-2,2′-biinden-1-ol [Compound 6]”, the “inhibition of β-hexosaminidase release” value ([1]; RBL-2H3 cells stimulated by calcium ionophore A23187, Bioorg. Med. Chem. Lett. 19(20), 2009) is listed as “dose-dependant inhibition” and the “inhibition of β-hexosaminidase release” value [1, 3] is listed as “dose dependent inhibition”.

For O[C@@H]1c2ccccc2C[C@]1(Cc1ccccc1)C1=Cc2ccccc2C1 (racemic) [Compound 5, (R,S and SR)2-Benzyl-2,3-dihydro-1H,1′H-2,2′-biinden-1-ol], the “inhibition of β-hexosaminidase release” value [1, 3] is listed as “dose dependent inhibition”.

In the case of “(R,S or SR)2-Benzyl-2,3-dihydro-1H,1′H-2,2′-biinden-1-ol [Compound 7]”, the cell viability (Jurkat cells) is reported as “without affecting cell viability”, the “IL2 release from Jurkat cells” value [2] is reported as “inhibited IL2 release” and the “IL-2 [ ]pg/ml (1)” value ([2]; 0.3 uM) is reported as 44.65 pg/mL. For the same compound, the “IL-2 % Control (1)” value ([2]; 0.3 uM) was 218.87%, the “IL-2 [ ]pg/ml (2)” value ([2]; 0.3 uM) was 93.65 pg/mL and the “IL-2 % Control (2)” value ([2]; 0.3 uM) was 143.42%. For the same compound, the “IL-2 [ ]pg/ml (3)” value ([2]; 0.3 uM) was 112.94 pg/mL, the “IL-2 % Control (3)” value ([2]; 0.3 uM) was 85.85% and the “IL-2 [ ]pg/ml (1)” value ([2]; 1 uM) was 49.20 pg/mL. For the same compound, the “IL-2 % Control (1)” value ([2]; 1 uM) was 241.18%, the “IL-2 [ ]pg/ml (2)” value ([2]; 1 uM) was 71.40 pg/mL and the “IL-2 % Control (2)” value ([2]; 1 uM) was 109.34%. The “IL-2 [ ]pg/ml (3)” value ([2]; 1 uM) was 109.59 pg/mL, the “IL-2 % Control (3)” value ([2]; 1 uM) was 83.31% and the “IL-2 [ ]pg/ml (1)” value ([2]; 3 uM) was 43.25 pg/mL. For the same compound, the “IL-2 % Control (1)” value ([2]; 3 uM) was 212.01%, the “IL-2 [ ]pg/ml (2)” value ([2]; 3 uM) was 45.10 pg/mL and the “IL-2 % Control (2)” value ([2]; 3 uM) was 69.07%. For the same compound, the “IL-2 [ ]pg/ml (3)” value ([2]; 3 uM) was 97.25 pg/mL, the “IL-2 % Control (3)” value ([2]; 3 uM) was 73.92% and the “IL-2 [ ]pg/ml (1)” value ([2]; 10 uM) was 24.75 pg/mL. The “IL-2 % Control (1)” value ([2]; 10 uM) was 121.32%, the “IL-2 [ ]pg/ml (2)” value ([2]; 10 uM) was 36.75 pg/mL and the “IL-2 % Control (2)” value ([2]; 10 uM) was 56.28%. For the same compound, the “IL-2 [ ]pg/ml (3)” value ([2]; 10 uM) was 81.84 pg/mL, the “IL-2 % Control (3)” value ([2]; 10 uM) was 62.21% and the “IL-2 [ ]pg/ml (1)” value ([2]; 30 uM) was 10.10 pg/mL. For the same compound, the “IL-2 % Control (1)” value ([2]; 30 uM) was 49.51%, the “IL-2 [ ]pg/ml (2)” value ([2]; 30 uM) was 27.80 pg/mL and the “IL-2 % Control (2)” value ([2]; 30 uM) was 42.57%. For the same compound, the “IL-2 [ ]pg/ml (3)” value ([2]; 30 uM) was 32.00 pg/mL, the “IL-2 % Control (3)” value ([2]; 30 uM) was 24.32% and the “IL-2 [ ]pg/ml (1)” value ([2]; 100 uM) was 1.15 pg/mL. For the same compound, the “IL-2 % Control (1)” value ([2]; 100 uM) was 5.64%, the “IL-2 [ ]pg/ml (2)” value ([2]; 100 uM) was -19.30 pg/mL and the “IL-2 % Control (2)” value ([2]; 100 uM) was −29.56%. For the same compound, the “IL-2 [ ]pg/ml (3)” value ([2]; 100 uM) was -3.13 pg/mL and the “IL-2 % Control (3)” value ([2]; 100 uM) was −2.38%.

With COc1ccc2c(c1)c(CC(=O)O)c(C)n2C(=O)c1ccc(Cl)cc1 [Indomethacin, reference compound] the “ear swelling (increase in ear thickness)” value (BalbC mice) was 40%.

In the case of C[C@@H]1C[C@H]2[C@@H]3CCC4=CC(=O)C=C[C@]4(C)[C@@]3(F)[C@@H](O)C[C@]2(C)[C@@]1(O)C(=O)CO [dexamethasone, reference compound], the “increase in ear punch weight” value (Balb/C mice) is reported as 42%.
